According to publication PMC12332667, “Role of Structural Modifications in Peptidomimetic Compounds as Potential Antimicrobial Agents against Staphylococcus aureus and Streptococcus pyogenes: Balancing Bioavailability, Safety, and Antimicrobial Activity” (ACS Omega, 2025):
In brackets after ≈: the same amount, converted by molar mass. Several values for one entry are separate records, joined by “and”; a condition that tells them apart may be missing. Equal entries are not always repeated. Residues, ends and D or L forms follow the SMILES beside them.

Columns and labels:
S. aureus ATCC 43300 = assay: MIC/MBC broth microdilution, S. aureus; type: cell-based, Staphylococcus aureus; settings: S. aureus
S. pyogenes ATCC 19615 = assay: MIC/MBC broth microdilution, S. pyogenes; type: cell-based, Streptococcus pyogenes; settings: S. pyogenes
Summary of the method: (§1)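 BHI broth microdilution (NCCLS); ~10^5 CFU/mL; 37 °C, 18 h. MIC = lowest conc., no visible growth (≥90% vs untreated). MBC = ≤3 colonies, ≥99.9% kill. Water/DMSO/EtOH solvent controls; technical triplicate ×3 biological repeats.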

E. coli ATCC 25922 = assay: MIC/MBC broth microdilution, E. coli; type: cell-based, Escherichia coli
Summary of the method: as §1

P. vulgaris ATCC 6896 = assay: MIC/MBC broth microdilution, P. vulgaris; type: cell-based, Proteus vulgaris
Summary of the method: as §1

[1] = tested on: immortalized human keratinocytes (HaCaT); assay: LDH cytotoxicity test, keratinocytes; type: cell-based; settings: for cytotoxicity (LDH), in words / concentration at which cytotoxic effect starts: 48 h; for cytotoxicity (LDH), in words: 50-150 μg/mL; for concentration at which cytotoxic effect starts: LDH
Summary of the method: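 Cytotoxicity as LDH release after 48 h serum-free treatment (50, 100, 150 μg/mL peptidomimetics) of 46BR.1N fibroblasts or HaCaT keratinocytes seeded at 5000 per well. Absorbance 450 nm; untreated set as 0% and Triton X-100 1% as maximal release; Mann–Whitney U test, p ≤ 0.05.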

[2] = tested on: human dermal fibroblast cell line (46BR.1N); assay: XTT cell proliferation assay, fibroblasts; type: cell-based; settings: for effect on proliferation, in words: 48 and 72 h, 0.01–150 μg/mL
Summary of the method: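 Proliferation was read as XTT absorbance at 490 nm after 4 h of reagent incubation, following 48 or 72 h of peptide exposure in serum-free HG-DMEM (37 °C, 5% CO2). The 72 h arm included a half-medium change with second peptide dose at 48 h. Significance by Mann–Whitney U, p ≤ 0.05.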

[3] = Stability / presence in human plasma; type: in vitro ADME; settings: 24 h incubation at 37 °C
Protocol: Blood was drawn from healthy volunteers, and lithium/heparin holding tubes were used to remove the clot by centrifugation. The plasma was aliquoted in sterile conditions and incubated with the desired compounds for 24 h at 37 °C. The samples were prepared under sterile conditions following the previously described protocol. The samples were collected at six time points (0, 1, 2, 3, 6, and 24 h) for determining stability in water solutions, and time points of 0, 10, 20, 30, 40, 50, and 60 min, as well as of 2, 3, 6, and 24 h, for determining stability in human plasma. The analysis was performed by HPLC using a Kromasil C8 column (5 μm, 90 Å, 1.0 mm × 250 mm) monitored by a PDA or ELDS-LT II detector. For quantification, peak areas were compared to a calibration curve calculated by Shimadzu LCsolution Software (Kyoto, Japan). Graphs were prepared in GraphPad Prism (Boston, USA).

CC(C)[C@@H](CNC(=O)C(=Cc1ccccc1)c1ccccc1)NC(=O)[C@H](CCCNC(=N)N)NC(=O)[C@H](CCCCNC(=N)N)NC(=O)OCc1ccccc1 [Compound A-192]
MBC (S. aureus ATCC 43300; H2O): 4 µg/mL (≈ 5.2 µM)
MIC (S. aureus ATCC 43300; H2O): 4 µg/mL (≈ 5.2 µM)
MBC (S. aureus ATCC 43300; water additive DMSO): 16 µg/mL (≈ 20.8 µM)
MIC (S. aureus ATCC 43300; water additive DMSO): 16 µg/mL (≈ 20.8 µM)
MBC (S. aureus ATCC 43300; water additive EtOH): 16 µg/mL (≈ 20.8 µM)
MIC (S. aureus ATCC 43300; water additive EtOH): 16 µg/mL (≈ 20.8 µM)
MBC (S. pyogenes ATCC 19615; H2O): 8 µg/mL (≈ 10.4 µM)
MIC (S. pyogenes ATCC 19615; H2O): 8 µg/mL (≈ 10.4 µM)
MBC (S. pyogenes ATCC 19615; water additive DMSO): 8 µg/mL (≈ 10.4 µM)
MIC (S. pyogenes ATCC 19615; water additive DMSO): 8 µg/mL (≈ 10.4 µM)
MBC (S. pyogenes ATCC 19615; water additive EtOH): 8 µg/mL (≈ 10.4 µM)
MIC (S. pyogenes ATCC 19615; water additive EtOH): 4 µg/mL (≈ 5.2 µM)
MIC (E. coli ATCC 25922; H2O): > 512 µg/mL
MBC (E. coli ATCC 25922; water additive DMSO): 512 µg/mL (≈ 666 µM)
MIC (E. coli ATCC 25922; water additive DMSO): 256 µg/mL (≈ 333 µM)
MIC (E. coli ATCC 25922; water additive EtOH): > 512 µg/mL
MIC (P. vulgaris ATCC 6896; H2O): > 512 µg/mL
MIC (P. vulgaris ATCC 6896; water additive DMSO): > 512 µg/mL
MIC (P. vulgaris ATCC 6896; water additive EtOH): > 512 µg/mL
cytotoxicity (LDH), in words [1]: high cytotoxicity toward keratinocytes
proliferation relative to control at 100 and 150 μg/mL ([2]; XTT): 25%
proliferation relative to control at 50 μg/mL ([2]; XTT, 50 μg/mL): 50%
effect on proliferation, in words ([2]; XTT): negative impact

CC(C)[C@@H](CNC(=O)C(=Cc1ccccc1)c1ccccc1)NC(=O)[C@H](Cc1c[nH]cn1)NC(=O)[C@H](CCCCNC(=N)N)NC(=O)OCc1ccccc1 [Compound A-193]
MBC (S. aureus ATCC 43300; H2O): 32 µg/mL (≈ 42.7 µM)
MIC (S. aureus ATCC 43300; H2O): 32 µg/mL (≈ 42.7 µM)
MBC (S. aureus ATCC 43300; water additive DMSO): 32 µg/mL (≈ 42.7 µM)
MIC (S. aureus ATCC 43300; water additive DMSO): 32 µg/mL (≈ 42.7 µM)
MBC (S. aureus ATCC 43300; water additive EtOH): 32 µg/mL (≈ 42.7 µM)
MIC (S. aureus ATCC 43300; water additive EtOH): 32 µg/mL (≈ 42.7 µM)
MBC (S. pyogenes ATCC 19615; H2O): 16 µg/mL (≈ 21.3 µM)
MIC (S. pyogenes ATCC 19615; H2O): 8 µg/mL (≈ 10.7 µM)
MBC (S. pyogenes ATCC 19615; water additive DMSO): 16 µg/mL (≈ 21.3 µM)
MIC (S. pyogenes ATCC 19615; water additive DMSO): 8 µg/mL (≈ 10.7 µM)
MBC (S. pyogenes ATCC 19615; water additive EtOH): 16 µg/mL (≈ 21.3 µM)
MIC (S. pyogenes ATCC 19615; water additive EtOH): 8 µg/mL (≈ 10.7 µM)
MBC (E. coli ATCC 25922; H2O): 256 µg/mL (≈ 341 µM)
MIC (E. coli ATCC 25922; H2O): 256 µg/mL (≈ 341 µM)
MIC (E. coli ATCC 25922; water additive DMSO): > 512 µg/mL
MBC (E. coli ATCC 25922; water additive EtOH): 512 µg/mL (≈ 683 µM)
MIC (E. coli ATCC 25922; water additive EtOH): 256 µg/mL (≈ 341 µM)
MIC (P. vulgaris ATCC 6896; H2O): > 512 µg/mL
MIC (P. vulgaris ATCC 6896; water additive DMSO): > 512 µg/mL
MIC (P. vulgaris ATCC 6896; water additive EtOH): > 512 µg/mL
cytotoxicity (LDH), in words [1]: cytotoxic only at a concentration of 150 μg/mL
concentration at which cytotoxic effect starts [1]: 150 µg/mL
antiproliferative effect (decrease vs control) ([2]; up to 150 μg/mL, A-193 and A-179 after 48 h): over 50%

CC(C)[C@H](NC(=O)[C@H](Cc1c[nH]cn1)NC(=O)[C@H](CCCNC(=N)N)NC(=O)OCc1ccccc1)C(=O)NCCc1ccccc1 [Compound A-219] (HELM PEPTIDE1{[O=C(OCc1ccccc1)[*:2]].R.H.V.[c1ccc(CCN[*:1])cc1]}$$$$V2.0)
MIC (S. aureus ATCC 43300; H2O): > 512 µg/mL
MIC (S. aureus ATCC 43300; water additive DMSO): > 512 µg/mL
MIC (S. aureus ATCC 43300; water additive EtOH): > 512 µg/mL
MBC (S. pyogenes ATCC 19615; H2O): 512 µg/mL (≈ 790 µM)
MIC (S. pyogenes ATCC 19615; H2O): 512 µg/mL (≈ 790 µM)
MBC (S. pyogenes ATCC 19615; water additive DMSO): 512 µg/mL (≈ 790 µM)
MIC (S. pyogenes ATCC 19615; water additive DMSO): 512 µg/mL (≈ 790 µM)
MBC (S. pyogenes ATCC 19615; water additive EtOH): 512 µg/mL (≈ 790 µM)
MIC (S. pyogenes ATCC 19615; water additive EtOH): 512 µg/mL (≈ 790 µM)
MIC (E. coli ATCC 25922; H2O): > 512 µg/mL
MIC (E. coli ATCC 25922; water additive DMSO): > 512 µg/mL
MIC (E. coli ATCC 25922; water additive EtOH): > 512 µg/mL
MIC (P. vulgaris ATCC 6896; H2O): > 512 µg/mL
MIC (P. vulgaris ATCC 6896; water additive DMSO): > 512 µg/mL
MIC (P. vulgaris ATCC 6896; water additive EtOH): > 512 µg/mL
present in human plasma [3]: 85–90%
cytotoxicity (LDH), in words [1]: no adverse effects
pro-proliferative effect above control ([2]; A-196 0.01–10 μg/mL, A-219 above 0.1 μg/mL, A-213 lower concentrations): around 20%
effect on proliferation, in words ([2]; XTT): best pro-proliferative effect

CC(C)[C@H](NC(=O)[C@H](Cc1c[nH]cn1)NC(=O)[C@H](CCCCN)NC(=O)OCc1ccccc1)C(=O)NCCc1ccccc1 [Compound A-220] (HELM PEPTIDE1{[O=C(OCc1ccccc1)[*:2]].K.H.V.[c1ccc(CCN[*:1])cc1]}$$$$V2.0)
MBC (S. aureus ATCC 43300; H2O): 512 µg/mL (≈ 826 µM)
MIC (S. aureus ATCC 43300; H2O): 512 µg/mL (≈ 826 µM)
MBC (S. aureus ATCC 43300; water additive DMSO): 512 µg/mL (≈ 826 µM)
MIC (S. aureus ATCC 43300; water additive DMSO): 512 µg/mL (≈ 826 µM)
MBC (S. aureus ATCC 43300; water additive EtOH): 512 µg/mL (≈ 826 µM)
MIC (S. aureus ATCC 43300; water additive EtOH): 512 µg/mL (≈ 826 µM)
MBC (S. pyogenes ATCC 19615; H2O): > 512 µg/mL
MIC (S. pyogenes ATCC 19615; H2O): 512 µg/mL (≈ 826 µM)
MBC (S. pyogenes ATCC 19615; water additive DMSO): 256 µg/mL (≈ 413 µM)
MBC (S. pyogenes ATCC 19615; water additive EtOH): 512 µg/mL (≈ 826 µM)
MIC (S. pyogenes ATCC 19615; water additive EtOH): 512 µg/mL (≈ 826 µM)
MBC (E. coli ATCC 25922; H2O): 512 µg/mL (≈ 826 µM)
MIC (E. coli ATCC 25922; H2O): 512 µg/mL (≈ 826 µM)
MIC (E. coli ATCC 25922; water additive DMSO): > 512 µg/mL
MBC (E. coli ATCC 25922; water additive EtOH): 512 µg/mL (≈ 826 µM)
MIC (E. coli ATCC 25922; water additive EtOH): 512 µg/mL (≈ 826 µM)
MIC (P. vulgaris ATCC 6896; H2O): > 512 µg/mL
MIC (P. vulgaris ATCC 6896; water additive DMSO): > 512 µg/mL
MIC (P. vulgaris ATCC 6896; water additive EtOH): > 512 µg/mL
present in human plasma [3]: 85–90%
cytotoxicity (LDH) ([1]; 48 h, 50, 100 and 150 μg/mL, vs 1% Triton X-100): 10–15% and 10%
concentration at which cytotoxic effect starts [1]: > 150 µg/mL
effect on proliferation, in words ([2]; XTT): did not exert any negative impact

CC(C)[C@H](NC(=O)[C@H](CCCNC(=N)N)NC(=O)[C@H](CCCNC(=N)N)NC(=O)OCc1ccccc1)C(=O)NCCc1ccccc1 [Compound A-221] (HELM PEPTIDE1{[O=C(OCc1ccccc1)[*:2]].R.R.V.[c1ccc(CCN[*:1])cc1]}$$$$V2.0)
MBC (S. aureus ATCC 43300; H2O): 512 µg/mL (≈ 768 µM)
MIC (S. aureus ATCC 43300; H2O): 512 µg/mL (≈ 768 µM)
MIC (S. aureus ATCC 43300; water additive DMSO): > 512 µg/mL
MBC (S. aureus ATCC 43300; water additive EtOH): 512 µg/mL (≈ 768 µM)
MIC (S. aureus ATCC 43300; water additive EtOH): 256 µg/mL (≈ 384 µM)
MBC (S. pyogenes ATCC 19615; H2O): 256 µg/mL (≈ 384 µM)
MBC (S. pyogenes ATCC 19615; water additive DMSO): > 512 µg/mL
MIC (S. pyogenes ATCC 19615; water additive DMSO): 512 µg/mL (≈ 768 µM)
MBC (S. pyogenes ATCC 19615; water additive EtOH): 256 µg/mL (≈ 384 µM)
MIC (E. coli ATCC 25922; H2O): > 512 µg/mL
MIC (E. coli ATCC 25922; water additive DMSO): > 512 µg/mL
MIC (E. coli ATCC 25922; water additive EtOH): > 512 µg/mL
MIC (P. vulgaris ATCC 6896; H2O): > 512 µg/mL
MIC (P. vulgaris ATCC 6896; water additive DMSO): > 512 µg/mL
MIC (P. vulgaris ATCC 6896; water additive EtOH): > 512 µg/mL
present in human plasma [3]: 85–90%
cytotoxicity (LDH), in words [1]: no adverse effects
effect on proliferation, in words ([2]; XTT): pro-proliferating effect at lower concentrations followed by an antiproliferative effect at higher concentrations
